Data from BindingDB's records for doi:10.1038/sj.bjp.0702632 (Roche Bioscience, 1999).

Legend:
[1] = molecular target: 5-hydroxytryptamine receptor 2B (Homo sapiens, UniProt P41595)
[2] = molecular target: T1, 5-hydroxytryptamine receptor 3A (Homo sapiens, UniProt P46098)
T1 sequence (P46098 whole entry): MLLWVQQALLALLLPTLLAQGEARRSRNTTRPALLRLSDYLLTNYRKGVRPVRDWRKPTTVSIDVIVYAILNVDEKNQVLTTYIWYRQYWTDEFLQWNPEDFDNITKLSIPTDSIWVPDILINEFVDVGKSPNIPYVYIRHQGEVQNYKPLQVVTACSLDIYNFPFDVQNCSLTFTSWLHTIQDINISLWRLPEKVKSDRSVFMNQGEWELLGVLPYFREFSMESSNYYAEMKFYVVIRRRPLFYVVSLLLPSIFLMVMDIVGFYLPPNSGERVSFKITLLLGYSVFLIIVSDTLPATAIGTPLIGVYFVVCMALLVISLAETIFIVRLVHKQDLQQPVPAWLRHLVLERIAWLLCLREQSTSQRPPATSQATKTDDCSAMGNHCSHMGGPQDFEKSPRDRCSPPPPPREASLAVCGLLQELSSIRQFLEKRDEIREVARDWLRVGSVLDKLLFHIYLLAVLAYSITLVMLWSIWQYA

[3] = molecular target: 5-hydroxytryptamine receptor 6 (Homo sapiens, UniProt P50406)
[4] = molecular target: 5-hydroxytryptamine receptor 2A (Homo sapiens, UniProt P28223)
[5] = molecular target: 5-hydroxytryptamine receptor 5A (Homo sapiens, UniProt P47898)
[6] = molecular target: T2, 5-hydroxytryptamine receptor 2C (Homo sapiens, UniProt P28335)
T2 sequence (P28335 whole entry): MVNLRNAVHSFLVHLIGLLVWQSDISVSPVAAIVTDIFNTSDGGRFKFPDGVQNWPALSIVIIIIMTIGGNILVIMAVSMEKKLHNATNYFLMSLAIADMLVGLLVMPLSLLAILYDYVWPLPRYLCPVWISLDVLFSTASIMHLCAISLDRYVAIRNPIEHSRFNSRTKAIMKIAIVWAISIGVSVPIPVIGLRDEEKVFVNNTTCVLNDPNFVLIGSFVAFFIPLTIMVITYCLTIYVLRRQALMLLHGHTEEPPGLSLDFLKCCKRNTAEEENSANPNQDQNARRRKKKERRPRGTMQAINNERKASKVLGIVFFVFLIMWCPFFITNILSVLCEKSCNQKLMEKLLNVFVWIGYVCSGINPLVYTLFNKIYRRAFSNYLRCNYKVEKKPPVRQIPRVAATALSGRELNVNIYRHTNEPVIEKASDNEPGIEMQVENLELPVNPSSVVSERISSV

Sequence of 5-hydroxytryptamine receptor 2B (P41595 whole entry): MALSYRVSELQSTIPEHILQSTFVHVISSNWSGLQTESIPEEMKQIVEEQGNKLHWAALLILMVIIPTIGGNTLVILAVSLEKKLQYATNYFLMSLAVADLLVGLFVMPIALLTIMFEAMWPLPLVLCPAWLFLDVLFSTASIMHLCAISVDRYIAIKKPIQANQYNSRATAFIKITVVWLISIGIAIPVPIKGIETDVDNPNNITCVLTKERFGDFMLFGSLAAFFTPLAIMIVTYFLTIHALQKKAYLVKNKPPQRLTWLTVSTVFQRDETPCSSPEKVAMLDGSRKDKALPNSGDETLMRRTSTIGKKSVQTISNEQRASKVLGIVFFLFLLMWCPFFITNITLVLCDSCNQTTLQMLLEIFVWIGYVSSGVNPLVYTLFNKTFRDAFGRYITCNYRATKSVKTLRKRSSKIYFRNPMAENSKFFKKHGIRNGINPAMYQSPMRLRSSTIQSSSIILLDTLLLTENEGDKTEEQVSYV
Sequence of 5-hydroxytryptamine receptor 6 (P50406 whole entry): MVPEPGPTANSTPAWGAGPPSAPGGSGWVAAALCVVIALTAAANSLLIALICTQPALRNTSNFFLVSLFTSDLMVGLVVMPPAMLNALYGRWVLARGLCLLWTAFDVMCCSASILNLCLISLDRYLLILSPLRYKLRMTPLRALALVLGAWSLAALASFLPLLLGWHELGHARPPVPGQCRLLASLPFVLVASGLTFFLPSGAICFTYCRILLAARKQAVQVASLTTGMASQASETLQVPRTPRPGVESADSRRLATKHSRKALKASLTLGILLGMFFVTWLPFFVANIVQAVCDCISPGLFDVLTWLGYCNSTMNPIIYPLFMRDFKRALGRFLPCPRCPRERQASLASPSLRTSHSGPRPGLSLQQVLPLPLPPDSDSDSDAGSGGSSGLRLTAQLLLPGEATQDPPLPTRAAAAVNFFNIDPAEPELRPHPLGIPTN
Sequence of 5-hydroxytryptamine receptor 2A (P28223 whole entry): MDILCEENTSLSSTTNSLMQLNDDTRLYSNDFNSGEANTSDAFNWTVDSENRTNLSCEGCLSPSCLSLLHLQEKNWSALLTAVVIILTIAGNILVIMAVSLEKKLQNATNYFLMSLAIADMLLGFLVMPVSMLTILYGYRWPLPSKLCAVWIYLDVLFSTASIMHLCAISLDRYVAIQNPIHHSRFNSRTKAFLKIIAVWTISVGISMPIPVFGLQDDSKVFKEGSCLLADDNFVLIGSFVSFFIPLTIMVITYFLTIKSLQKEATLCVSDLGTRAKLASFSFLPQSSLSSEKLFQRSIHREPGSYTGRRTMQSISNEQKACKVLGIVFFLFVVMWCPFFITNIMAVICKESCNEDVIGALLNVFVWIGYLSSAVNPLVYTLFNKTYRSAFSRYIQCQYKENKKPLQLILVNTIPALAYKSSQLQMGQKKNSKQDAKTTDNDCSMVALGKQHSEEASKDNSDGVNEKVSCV
Sequence of 5-hydroxytryptamine receptor 5A (P47898 whole entry): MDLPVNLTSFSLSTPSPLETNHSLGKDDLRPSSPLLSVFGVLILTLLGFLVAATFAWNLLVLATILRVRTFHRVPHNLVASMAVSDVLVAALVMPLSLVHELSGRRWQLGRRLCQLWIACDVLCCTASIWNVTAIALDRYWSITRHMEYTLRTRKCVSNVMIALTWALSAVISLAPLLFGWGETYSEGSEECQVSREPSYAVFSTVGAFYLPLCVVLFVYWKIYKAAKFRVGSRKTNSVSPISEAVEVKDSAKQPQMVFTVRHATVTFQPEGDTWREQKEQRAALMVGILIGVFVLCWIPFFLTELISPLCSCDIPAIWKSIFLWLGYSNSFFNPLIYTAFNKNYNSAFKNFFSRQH

Ki [1] [nM]	Ki [2] [nM]	Ki [3] [nM]	Ki [4] [nM]	Ki [5] [nM]	Ki [6] [nM]	SMILES
1	–	–	–	–	–	COc1ccc(CC2NCCc3c2[nH]c2ccccc32)cc1OC (stereo not drawn) [LY-23728]
0.32	1000	1000	501	1000	398	CC(C)c1cc(-c2ccc(F)c3ccccc23)nc(N)n1 [RS-127445]
1	–	–	–	–	–	Cc1nc2sccn2c(=O)c1CCN1CCC(=C(c2ccc(F)cc2)c2ccc(F)cc2)CC1
